Measured values as given in the supplement of paper PMC13380429.

What was measured:
[1] = tested on: A549-ACE2 infected with SARS-CoV-2; assay: cell count relative to DMSO; higher = less toxic; settings: 24 h
Caco-2 [2] = assay: cell viability relative to DMSO; higher = less toxic; settings: 72 h
Calu-3 [3] = assay: as above; settings: 72 h
HepG2 [4] = assay: as above; settings: 72 h
U2OS [5] = assay: as above; settings: 72 h
Vero E6 [6] = assay: as above; settings: 72 h
[7] = tested on: A549-ACE2 infected with SARS-CoV-2; assay: SARS-CoV-2 infection rate relative to DMSO; higher = more infection; settings: 24 h
A549-ACE2 = assay: drug-induced phospholipidosis relative to tamoxifen; higher = more phospholipidosis
[8] = tested on: A549-ACE2 infected with SARS-CoV-2; assay: morphology score (similarity to uninfected cells); higher = more like uninfected cells; settings: 24 h
U2OS [9] = assay: relative viability EC50 (midpoint between 100% and the lowest measured viability); higher = less toxic; settings: 72 h
Vero E6 [10] = assay: as above; settings: 72 h
Caco-2 [11] = assay: drug sensitivity score (DSS) for viability; higher = more toxic; extreme values may be limits of the assay; settings: 72 h
Calu-3 [12] = assay: as above; settings: 72 h
HepG2 [13] = assay: as above; settings: 72 h
U2OS [14] = assay: as above; settings: 72 h
Vero E6 [15] = assay: as above; settings: 72 h
Caco-2 [16] = assay: relative viability EC50 (midpoint between 100% and the lowest measured viability); higher = less toxic; settings: 72 h
Calu-3 [17] = assay: as above; settings: 72 h
HepG2 [18] = assay: as above; settings: 72 h

O=C(CCCN1CCC2(CC1)C(=O)NCN2c1ccccc1)c1ccc(F)cc1 [spiperone]
cell count ([1]; 0.3 µM): 99% | cell count ([1]; 3 µM): 114% | cell count ([1]; 10 µM): 97% | cell count ([1]; 30 µM): 77% | cell viability (Caco-2 [2]; 1 nM): 99.3% | cell viability (Caco-2 [2]; 10 nM): 92.7% | cell viability (Caco-2 [2]; 100 nM): 96.2% | cell viability (Caco-2 [2]; 1000 nM): 99.3% | cell viability (Caco-2 [2]; 10000 nM): 71.9% | cell viability (Calu-3 [3]; 1 nM): 105% | cell viability (Calu-3 [3]; 10 nM): 84.1% | cell viability (Calu-3 [3]; 100 nM): 108% | cell viability (Calu-3 [3]; 1000 nM): 103% | cell viability (Calu-3 [3]; 10000 nM): 74.1% | cell viability (HepG2 [4]; 1 nM): 91.6% | cell viability (HepG2 [4]; 10 nM): 108% | cell viability (HepG2 [4]; 100 nM): 98.7% | cell viability (HepG2 [4]; 1000 nM): 91.1% | cell viability (HepG2 [4]; 10000 nM): 62.5% | cell viability (U2OS [5]; 1 nM): 100% | cell viability (U2OS [5]; 10 nM): 96.6% | cell viability (U2OS [5]; 100 nM): 101% | cell viability (U2OS [5]; 1000 nM): 98.5% | cell viability (U2OS [5]; 10000 nM): 94.6% | cell viability (Vero E6 [6]; 1 nM): 99.8% | cell viability (Vero E6 [6]; 10 nM): 103% | cell viability (Vero E6 [6]; 100 nM): 96.1% | cell viability (Vero E6 [6]; 1000 nM): 95.8% | cell viability (Vero E6 [6]; 10000 nM): 98.3% | SARS-CoV-2 infection rate ([7]; 0.3 µM): 102% | SARS-CoV-2 infection rate ([7]; 3 µM): 86% | SARS-CoV-2 infection rate ([7]; 10 µM): 31% | SARS-CoV-2 infection rate ([7]; 30 µM): 35% | drug-induced phospholipidosis (A549-ACE2; 0.3 µM, 24 h): -1.11% | drug-induced phospholipidosis (A549-ACE2; 0.3 µM, 48 h): 1.78% | drug-induced phospholipidosis (A549-ACE2; 0.3 µM, 72 h): 1.57% | drug-induced phospholipidosis (A549-ACE2; 0.833333 µM, 24 h): -1.19% | drug-induced phospholipidosis (A549-ACE2; 0.833333 µM, 48 h): -0.92% | drug-induced phospholipidosis (A549-ACE2; 0.833333 µM, 72 h): -0.0916% | drug-induced phospholipidosis (A549-ACE2; 3.33333 µM, 24 h): 0.56% | drug-induced phospholipidosis (A549-ACE2; 3.33333 µM, 48 h): 2.83% | drug-induced phospholipidosis (A549-ACE2; 3.33333 µM, 72 h): 2.59% | drug-induced phospholipidosis (A549-ACE2; 6.66667 µM, 24 h): 7.38% | drug-induced phospholipidosis (A549-ACE2; 6.66667 µM, 48 h): 6.18% | drug-induced phospholipidosis (A549-ACE2; 6.66667 µM, 72 h): 6.4% | drug-induced phospholipidosis (A549-ACE2; 10 µM, 24 h): 19.1% | drug-induced phospholipidosis (A549-ACE2; 10 µM, 48 h): 13.4% | drug-induced phospholipidosis (A549-ACE2; 10 µM, 72 h): 14.9% | drug-induced phospholipidosis (A549-ACE2; 30 µM, 24 h): 21% | morphology score ([8]; 0.3 µM): -0.22 | morphology score ([8]; 3 µM): 0.32 | morphology score ([8]; 10 µM): 0.19 | morphology score ([8]; 30 µM): 0.03 | relative viability EC50 (U2OS [9]): > 10000 nM | relative viability EC50 (Vero E6 [10]): > 10000 nM | drug sensitivity score (Caco-2 [11]): 1.3 | drug sensitivity score (Calu-3 [12]): 0.8 | drug sensitivity score (HepG2 [13]): 3.2 | drug sensitivity score (U2OS [14]): 0 | drug sensitivity score (Vero E6 [15]): 0

COc1ccc(-c2cc3nccn3c(Nc3ncccc3C(N)=O)n2)cc1OC [BAY-61-3606]
cell count ([1]; 0.1 µM): 99% | cell count ([1]; 0.3 µM): 99% | cell count ([1]; 1 µM): 95% | cell count ([1]; 3 µM): 59% | cell viability (Caco-2 [2]; 1 nM): 104% | cell viability (Caco-2 [2]; 10 nM): 89.8% | cell viability (Caco-2 [2]; 100 nM): 95.8% | cell viability (Caco-2 [2]; 1000 nM): 80.8% | cell viability (Caco-2 [2]; 10000 nM): 46.1% | cell viability (Calu-3 [3]; 1 nM): 108% | cell viability (Calu-3 [3]; 10 nM): 99.1% | cell viability (Calu-3 [3]; 100 nM): 96% | cell viability (Calu-3 [3]; 1000 nM): 130% | cell viability (Calu-3 [3]; 10000 nM): 109% | cell viability (HepG2 [4]; 1 nM): 96.1% | cell viability (HepG2 [4]; 10 nM): 99.7% | cell viability (HepG2 [4]; 100 nM): 102% | cell viability (HepG2 [4]; 1000 nM): 87.5% | cell viability (HepG2 [4]; 10000 nM): 5% | cell viability (U2OS [5]; 1 nM): 103% | cell viability (U2OS [5]; 10 nM): 97.4% | cell viability (U2OS [5]; 100 nM): 101% | cell viability (U2OS [5]; 1000 nM): 94.1% | cell viability (U2OS [5]; 10000 nM): 53.3% | cell viability (Vero E6 [6]; 1 nM): 97.4% | cell viability (Vero E6 [6]; 10 nM): 99% | cell viability (Vero E6 [6]; 100 nM): 93.9% | cell viability (Vero E6 [6]; 1000 nM): 99.6% | cell viability (Vero E6 [6]; 10000 nM): 70.9% | SARS-CoV-2 infection rate ([7]; 0.1 µM): 94% | SARS-CoV-2 infection rate ([7]; 0.3 µM): 101% | SARS-CoV-2 infection rate ([7]; 1 µM): 107% | SARS-CoV-2 infection rate ([7]; 3 µM): 82% | drug-induced phospholipidosis (A549-ACE2; 0.3 µM, 24 h): -2.52% | drug-induced phospholipidosis (A549-ACE2; 0.3 µM, 48 h): 0.47% | drug-induced phospholipidosis (A549-ACE2; 0.3 µM, 72 h): 0.971% | drug-induced phospholipidosis (A549-ACE2; 0.833333 µM, 24 h): -2.28% | drug-induced phospholipidosis (A549-ACE2; 0.833333 µM, 48 h): -0.01% | drug-induced phospholipidosis (A549-ACE2; 0.833333 µM, 72 h): -0.217% | drug-induced phospholipidosis (A549-ACE2; 3.33333 µM, 24 h): 22.8% | morphology score ([8]; 0.1 µM): 0.21 | morphology score ([8]; 0.3 µM): 0.16 | morphology score ([8]; 1 µM): 0.02 | morphology score ([8]; 3 µM): 0.48 | relative viability EC50 (Caco-2 [16]): 1360 nM | relative viability EC50 (Calu-3 [17]): > 10000 nM | relative viability EC50 (HepG2 [18]): 2100 nM | drug sensitivity score (Caco-2 [11]): 5.2 | drug sensitivity score (Calu-3 [12]): 0 | drug sensitivity score (HepG2 [13]): 7.4 | drug sensitivity score (U2OS [14]): 3.4 | drug sensitivity score (Vero E6 [15]): 1.3
